{
  "source": "the supplement of paper PMC10307832",
  "assay_in_all_cases": "relative viability (nuclei count vs DMSO), 5 days (fraction); higher = more cells survive",
  "key": {"Ponatinib + Foretinib": {"compound": "Cc1ccc(C(=O)Nc2ccc(CN3CCN(C)CC3)c(C(F)(F)F)c2)cc1C#Cc1cnc2cccnn12 [Ponatinib] + COc1cc2c(Oc3ccc(NC(=O)C4(C(=O)Nc5ccc(F)cc5)CC4)cc3F)ccnc2cc1OCCCN1CCOCC1 [Foretinib] (partner 0.25 µM)", "in_short": "(§1)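 Values are medians from duplicate plates. Each reflects relative viability, defined as the nuclei count of treated wells over that of vehicle wells. Lung cancer cell lines in 1536-well plates were pin-tool dosed one day after seeding with one drug alone or with a fixed anchor-drug dose plus five library-drug doses (not always all listed) in √10 steps, then fixed, stained and imaged at 4× after 5 days.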"}, "Ponatinib + Navitoclax": {"compound": "Cc1ccc(C(=O)Nc2ccc(CN3CCN(C)CC3)c(C(F)(F)F)c2)cc1C#Cc1cnc2cccnn12 [Ponatinib] + CC1(C)CCC(c2ccc(Cl)cc2)=C(CN2CCN(c3ccc(C(=O)NS(=O)(=O)c4ccc(N[C@H](CCN5CCOCC5)CSc5ccccc5)c(S(=O)(=O)C(F)(F)F)c4)cc3)CC2)C1 [Navitoclax] (partner 0.5 µM)", "in_short": "as §1"}, "Ponatinib + Trametinib": {"compound": "Cc1ccc(C(=O)Nc2ccc(CN3CCN(C)CC3)c(C(F)(F)F)c2)cc1C#Cc1cnc2cccnn12 [Ponatinib] + CC(=O)Nc1cccc(-n2c(=O)n(C3CC3)c(=O)c3c(Nc4ccc(I)cc4F)n(C)c(=O)c(C)c32)c1 [Trametinib] (partner 0.02 µM)", "in_short": "as §1"}, "Ponatinib + Tozasertib": {"compound": "Cc1ccc(C(=O)Nc2ccc(CN3CCN(C)CC3)c(C(F)(F)F)c2)cc1C#Cc1cnc2cccnn12 [Ponatinib] + Cc1cc(Nc2cc(N3CCN(C)CC3)nc(Sc3ccc(NC(=O)C4CC4)cc3)n2)n[nH]1 [Tozasertib] (partner 0.1 µM)", "in_short": "as §1"}},
  "data": [
    {"cell line": "UMC-11", "values": [
      {"measurement": "relative viability", "setting": "Ponatinib + Foretinib; first compound 0.002 µM", "value": 1.06},
      {"measurement": "relative viability", "setting": "Ponatinib + Foretinib; first compound 0.006325 µM", "value": 1.04},
      {"measurement": "relative viability", "setting": "Ponatinib + Foretinib; first compound 0.06325 µM", "value": 1.25},
      {"measurement": "relative viability", "setting": "Ponatinib + Foretinib; first compound 0.2 µM", "value": 1.03},
      {"measurement": "relative viability", "setting": "Ponatinib + Navitoclax; first compound 0.002 µM", "value": 0.311},
      {"measurement": "relative viability", "setting": "Ponatinib + Navitoclax; first compound 0.006325 µM", "value": 0.354},
      {"measurement": "relative viability", "setting": "Ponatinib + Navitoclax; first compound 0.06325 µM", "value": 0.38},
      {"measurement": "relative viability", "setting": "Ponatinib + Navitoclax; first compound 0.2 µM", "value": 0.345},
      {"measurement": "relative viability", "setting": "Ponatinib + Trametinib; first compound 0.002 µM", "value": 0.648},
      {"measurement": "relative viability", "setting": "Ponatinib + Trametinib; first compound 0.006325 µM", "value": 0.638},
      {"measurement": "relative viability", "setting": "Ponatinib + Trametinib; first compound 0.06325 µM", "value": 0.822},
      {"measurement": "relative viability", "setting": "Ponatinib + Trametinib; first compound 0.2 µM", "value": 0.709},
      {"measurement": "relative viability", "setting": "Ponatinib + Tozasertib; first compound 0.002 µM", "value": 0.193},
      {"measurement": "relative viability", "setting": "Ponatinib + Tozasertib; first compound 0.006325 µM", "value": 0.223},
      {"measurement": "relative viability", "setting": "Ponatinib + Tozasertib; first compound 0.06325 µM", "value": 0.209},
      {"measurement": "relative viability", "setting": "Ponatinib + Tozasertib; first compound 0.2 µM", "value": 0.217}
    ]}
  ]
}
